The results in this text go back to patent publication US20140322771A1, “Lipid Production” (THE UNIVERSITY OF QUEENSLAND, priority 2010, published 2014).

“Also recorded” adds a separate entry of the source.

For data set [1], the system named is S. cerevisiae WT and sld mutant strains. The data set can be described thus: Formation of supersized lipid droplets (SLDs) in yeast, Nile red staining and fluorescence microscopy. It is filed as cell-based, Saccharomyces cerevisiae. How it is done: To screen for yeast mutants that generate supersized LDs, cells were cultured in synthetic complete media (0.67% yeast nitrogen base, 2% dextrose, and amino acids) in 96-well plates at 30° C. till stationary phase. For TetO7-regulated strains, 15 μg/ml doxycycline was added to repress specific genes. Cells were stained with 20 μg/ml Nile red for LDs and observed by fluorescence microscopy. Yeast strains found to contain SLDs were recultured in synthetic complete media with aeration in 10 ml culture tubes to confirm the phenotype. These strains were also grown in YPD media (1% yeast extract, 2% peptone, and 2% dextrose) to examine the morphology of LDs.
For phospholipid precursor treatment, synthetic complete medium was supplemented with 1 mM choline, 1 mM ethanolamine, or 75 μM inositol.
Fluorescent imaging was performed under a Leica CTR5500 microscope (Wetzlar, Germany) with an EL6000 fluorescent lamp. Images were taken with a DFC300 FX digital camera and a Leica LAS AF software. Yeast cells were viewed under a ×100/1.30 oil immersion objective lens. A 450-490-nm bandpass excitation filter, a 510 dichromatic mirror, and a 515-nm longpass emission filter (Leica filter cube I3) were chosen to observe Nile red-stained LDs. For statistical presentation of the percentage of cells containing supersized LDs, 200 cells were observed and percentage was calculated. The experiments were done in triplicates and the result was shown as mean±SD. Mammalian LDs were stained with Bodipy 493/503 (Invitrogen) and observed with a 470/40-nm bandpass excitation filter, a 500-nm dichromatic mirror, and a 525/50-nm bandpass emission filter (Leica filter cube GFP).

The subject of data set [2] is lipid droplets of S. cerevisiae mutant strains. The data set can be described thus: Lipidomic analysis of lipid droplets isolated from yeast (PE/PL and PL/TAG ratio). It is filed as cell-based, Saccharomyces cerevisiae. How it is done: Lipid droplets were isolated as described in Fei et al. (Fei et al., (2008), “Fld1p, a functional homologue of human seipin, regulates the size of lipid droplets in yeast”, J Cell Biol 180: 473-482).
Lipids were extracted from zymolase-digested lyophilized yeast cells, isolated ER microsomes or lipid droplets. Briefly 900 μl ice-clod chlorofom:methanol (1:2) was added to samples. Mixtures were vigorously vortexed for 1 min, and incubated for 2 h in vacuum container with rotary shaking at 4° C. Then 400 μl ice-cold water and 300 μl chloroform were added, vortexed and incubated on ice for 1 min. After centrifugation at 12000 rpm for 3 min at 4° C., the lower organic phase was collected. Subsequently, 50 μl 1 M HCl and 500 μl chloroform were added to the remainder, vortexed, and incubated on ice for 3 min. The lower organic phase was also collected after centrifugation at 12000 rpm for 3 min at 4° C., and combined with the first extract. The extracted lipids were blown dry with nitrogen gas, and resuspended in solvent for mass spectrometry analysis.
Lipidomic analysis, and quantitative measurement of neutral lipids via thin layer chromatography (TLC) were performed as described in Fei et al. (Fei et al., (2008), “Fld1p, a functional homologue of human seipin, regulates the size of lipid droplets in yeast”, J Cell Biol 180: 473-482) and Low et al. (Low et al., (2008), “Caspase-dependent and -independent lipotoxic cell-death pathways in fission yeast”, J Cell Sci 121: 2671-2684). TLC plates were developed in chloroform/methanol/water (65:25:4) to separate phospholipid species.

For data set [3], the system named is Chlamydomonas homologue of CDS1p (gene C—30067). Nature of the data set: Lipid droplet accumulation in Chlamydomonas after RNAi knockdown of the CDS1p homologue (Nile red). It is filed as cell-based. Particulars: C. reinhardtii 21 gr transformed with hairpin RNAi construct, compared with wild type. How it is done:
A hairpin RNAi construct was made by using 1st-3rd exon of the Chlamydomonas homologue of CDS1p driven by LC8 promoter. The gene name of the homologue is C—30067. The LC8 promoter is from Chlamydomonas.
This construct was transformed into Chlamydomonas using a glass-bead method. The selection marker for transformation was APHVIII, whose expression conferred resistant to paromomysin.
The survival strains on agar plates were screened by using Nile Red staining. 1 ug/ml final concentration of Nile red was used.
A Zeiss fluorescence microscope (Observer.Z1) with GFP filter was used for screening putative RNAi strains.

Consider `O[C@H]1[C@H](O)[C@@H](O)[C@H](O)[C@@H](O)[C@H]1O` [inositol], for which the SLD formation entry in data set [1] (all sld mutants, SC media supplemented with 75 μM inositol) is reported as “reduced the SLD formation in all mutants; also recorded: significant reduction of SLD formation”. Further, in data set [1] (ino4Δ cells, inositol addition, higher PE to PL ratio persisted), the “biogenesis of supersized LDs” value was “completely abolished the biogenesis of supersized LDs”. For the same molecule, the “phospholipid to TAG ratio of LDs” value in data set [2] (cds1 or ino4Δ mutant, inositol supplementation) is listed as “did not increase”.

`CCCCCCCC/C=C\CCCCCCCC(=O)O` [oleate]: the “number of cells producing SLD” value in data set [1] (pah1Δ cells, supplement 1 mM each (about 3% of cells without supplement)) is given as “no effect”.

Turning to `NCCO` [ethanolamine], the SLD formation entry in data set [1] (most of the mutants, SC media supplemented with 1 mM ethanolamine) is “enhanced SLD formation in most of the mutants”. Besides, the “proportion of PE on lipid droplets” value in data set [2] (fld1Δ and cds1 cells, SC medium with ethanolamine) is “significantly increased”. In data set [2] (ino4Δ cells, SC medium with ethanolamine), the “PE to PL ratio of LDs” value is recorded as “moderately increased”.

B1: CDS1 gene RNAi: hairpin RNAi construct of exons 1-3 of the Chlamydomonas CDS1p homologue (C—30067, SEQ ID NO: 41), LC8 promoter (nucleic acid)
DNA: ATGCGACCAAAACAACAAGCTCAGGTCACCGCCGCGGAGGACACCGCGTCGGAGCCGGAGCCGGAGCCCAAGCCCGTGGATCGAAAGTCGAGGCTCAGGTCCTTCCGCGTACGCACCATCTCCTCGGTCTTGCTCATCGGCGGGTTCATCGGCATCATTTGGGCGGGTCATGTGCCGCTTATGTTCTTCATCCTGCTACTCCAGTTCCTGGTGGCCCGGGAGCTCTTCCGCATCGCCTACATAGCGGAGAAGTCCAAACGCAGCC
modifications: LC8 promoter; Hairpin RNAi construct targetting Chlamydomonas sp. CDS1p Homologue
Regarding B1, in data set [3], the lipid droplet accumulation entry is listed as “accumulated lipid droplet drastically”.
